Tests used:
[1] = Tested for the inhibitory activity against beta-lactamase type CTX-1 at dose of 10 ug/mL using substrate cephaloridine (CER); (CTX-1 enzyme activity is 0.7363 U/ml)
[2] = target: Beta-lactamase (Enterobacter cloacae) (UniProt P05364); assay: Tested for the inhibitory activity against beta-lactamase, Enterobacter cloacae at dose of 10 ug/mL using substrate cephaloridine (CER); (E. Cloacae enzyme activity is 1.1517 U/ml)
[3] = target: TEM-1 beta-lactamase (Escherichia coli) (UniProt P62593); assay: Tested for the inhibitory activity against beta-lactamase type TEM-1 at dose of 0.1 ug/mL using substrate ampicillin (ABPC); (TEM-1 enzyme activity is 1.6328 U/mL)
[4] = target: Beta-lactamase (Enterobacter cloacae) (UniProt P05364); assay: Tested for the inhibitory activity against beta-lactamase, Enterobacter cloacae at dose of 0.1 ug/mL using substrate cephaloridine (CER)
[5] = target: Beta-lactamase (Pseudomonas aeruginosa (strain ATCC 15692 / PAO1 / 1C / PRS 101 / LMG12228)) (UniProt P24735); assay: Tested for the inhibitory activity against beta-lactamase, Pseudomonas aeruginosa at dose of 10 ug/mL using substrate cephaloridine (CER); (P. Aeruginosa enzyme activity is 1.0352 U/ml)
[6] = target: TEM-1 beta-lactamase (Escherichia coli) (UniProt P62593); assay: Tested for the inhibitory activity against beta-lactamase type TEM-1 at dose of 10 ug/mL using substrate ampicillin (ABPC)
[7] = target: Beta-lactamase (Enterobacter cloacae) (UniProt P05364); assay: Tested for the inhibitory activity against beta-lactamase, Enterobacter cloacae at dose of 0.66 ug/mL using substrate cephaloridine (CER); (E. Cloacae enzyme activity is 1.1517 U/ml)
[8] = target: TEM-1 beta-lactamase (Escherichia coli) (UniProt P62593); assay: Tested for the inhibitory activity against beta-lactamase type TEM-1 at dose of 0.66 ug/mL using substrate ampicillin (ABPC); (TEM-1 enzyme activity is 1.6328 U/mL)
[9] = target: Beta-lactamase (Enterobacter cloacae) (UniProt P05364); assay: Tested for the inhibitory activity against beta-lactamase, Enterobacter cloacae at dose of 0.66 ug/mL using substrate cephaloridine (CER)
[10] = target: Beta-lactamase (Pseudomonas aeruginosa (strain ATCC 15692 / PAO1 / 1C / PRS 101 / LMG12228)) (UniProt P24735); assay: Tested for the inhibitory activity against beta-lactamase, Pseudomonas aeruginosa at dose of 0.66 ug/mL using substrate cephaloridine (CER); (P. Aeruginosa enzyme activity is 1.0352 U/ml)
[11] = Tested for the inhibitory activity against beta-lactamase type CTX-1 at dose of 0.66 ug/mL using substrate cephaloridine (CER); (CTX-1 enzyme activity is 0.7363 U/ml)

Sequence of Beta-lactamase (Enterobacter cloacae) (P05364 21-381 limits assumed): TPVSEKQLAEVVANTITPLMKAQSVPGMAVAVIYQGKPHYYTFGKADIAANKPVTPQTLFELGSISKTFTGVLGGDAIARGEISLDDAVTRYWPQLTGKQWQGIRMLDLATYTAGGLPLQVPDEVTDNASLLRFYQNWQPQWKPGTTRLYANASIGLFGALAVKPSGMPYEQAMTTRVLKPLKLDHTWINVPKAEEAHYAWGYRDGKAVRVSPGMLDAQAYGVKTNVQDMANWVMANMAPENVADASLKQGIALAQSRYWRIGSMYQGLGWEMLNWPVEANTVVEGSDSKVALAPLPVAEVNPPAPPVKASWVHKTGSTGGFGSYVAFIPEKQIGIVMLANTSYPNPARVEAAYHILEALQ
Sequence of TEM-1 beta-lactamase (Escherichia coli) (P62593 whole entry, looked up): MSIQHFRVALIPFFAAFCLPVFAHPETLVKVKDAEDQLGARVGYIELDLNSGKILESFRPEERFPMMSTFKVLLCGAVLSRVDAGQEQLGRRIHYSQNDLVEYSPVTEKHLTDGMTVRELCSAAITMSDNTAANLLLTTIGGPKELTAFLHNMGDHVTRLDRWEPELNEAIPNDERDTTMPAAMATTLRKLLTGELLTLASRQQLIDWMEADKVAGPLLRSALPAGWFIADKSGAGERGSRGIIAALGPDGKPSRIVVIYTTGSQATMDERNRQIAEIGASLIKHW
Sequence of Beta-lactamase (Pseudomonas aeruginosa (strain ATCC 15692 / PAO1 / 1C / PRS 101 / LMG12228)) (P24735 27-397 limits assumed): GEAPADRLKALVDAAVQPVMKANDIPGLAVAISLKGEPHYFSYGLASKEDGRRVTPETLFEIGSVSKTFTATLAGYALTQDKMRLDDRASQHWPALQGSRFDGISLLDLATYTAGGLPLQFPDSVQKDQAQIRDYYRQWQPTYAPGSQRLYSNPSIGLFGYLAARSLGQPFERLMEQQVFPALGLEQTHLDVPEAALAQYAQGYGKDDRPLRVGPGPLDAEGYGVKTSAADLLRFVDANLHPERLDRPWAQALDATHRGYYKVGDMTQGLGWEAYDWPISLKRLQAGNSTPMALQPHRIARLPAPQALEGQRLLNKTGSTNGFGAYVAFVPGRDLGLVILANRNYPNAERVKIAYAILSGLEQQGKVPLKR

SMILES	inhibition [1]	inhibition [2]	inhibition [3]	inhibition [4]	inhibition [5]	inhibition [6]	inhibition [7]	inhibition [8]	inhibition [9]	inhibition [10]	inhibition [11]
Cn1nnnc1SC1=C(C(=O)OC(c2ccccc2)c2ccccc2)N2C(=O)C[C@H]2S1	19%	45%	2%	10%	16%	28%					
Cc1nnc(SC2=C(C(=O)OC(c3ccccc3)c3ccccc3)N3C(=O)C[C@H]3S2)s1							14%	6%	8%	0%	12%

From ChEMBL document CHEMBL1127138, “2-substituted penems, new candidates for cephalosporinase inhibitors” (Bioorg Med Chem Lett, 1993)
